Source: US20180303853A1, “COMPOSITIONS AND METHODS FOR TREATING BACTERIAL INFECTIONS USING CEFTAROLINE” (priority 2017, published 2018)
Like-named read-outs stand apart in the source and are kept apart here.

Tests used:
[1] = test system: MDRSP (multidrug-resistant); assay type: in vivo, Streptococcus pneumoniae; conditions: CABP, ME patients
Method: (§1) In both treatment groups of CABP Study 1, two doses of oral clarithromycin (500 mg q12 h), were administered as adjunctive therapy starting on Study Day 1. No adjunctive macrolide therapy was used in CABP Study 2. Patients with new or progressive pulmonary infiltrate(s) on chest radiography and clinical signs and symptoms consistent with CABP with the need for hospitalization and IV therapy were enrolled in the studies. Treatment duration was 5 to 7 days. A switch to oral therapy was not allowed. The Modified Intent-to-Treat Efficacy (MITTE) population, included all patients who received any amount of study drug according to their randomized, treatment group and were in PORT (Pneumonia Outcomes Research Team) Risk Class III or IV.
(§2) The primary efficacy endpoint was the clinical response at the Test of Cure (TOC) visit in the co-primary Ce and MITTE populations (Table 4).

S. aureus [2] = assay: Example 5 CAP study, outcome by baseline pathogen; assay type: in vivo
Source text: (§3) Per-pathogen clinical cure rate and favorable microbiological outcome rate at TOC in the mMITTE and ME Populations;

H. influenzae [3] = assay: Example 5 CAP study, outcome by baseline pathogen; assay type: in vivo
Source text: as §3

H. parainfluenzae [4] = assay: Example 5 CAP study, outcome by baseline pathogen; assay type: in vivo
Source text: as §3

S. pneumoniae [5] = assay: Example 5 CAP study, outcome by baseline pathogen; assay type: in vivo
Source text: as §3

E. coli = assay: Example 5 CAP study, outcome by baseline pathogen; assay type: in vivo
Source text: as §3

[6] = Example 5 CAP study, safety
Method: (§5) Study drug: Ceftaroline fosamil was administered in two consecutive 300 mg intravenous (IV) infusions over 30 minutes, every 12 hours (q12h). The 600-mg dose of ceftaroline fosamil infused over 60 minutes was split into two infusions in order to maintain the blind. For subjects with moderate renal impairment (30 mL/min<CrCl≤50 mL/min), as estimated by the Cockroft-Gault formula, unblinded pharmacy staff or unblinded study staff could adjust the dose of ceftaroline fosamil to two consecutive 200 mg infusions and readjust dose to two 300 mg infusions when renal function improved (CrCl>50 mL/min). The duration of treatment was between 5 to 7 days.
(§6) All subjects initially received two doses (500 mg every 12 hours) of oral adjunctive therapy with clarithromycin following randomization.
(§7) All subjects who received any amount of study drug were included in the safety analysis. Safety measures included monitoring for adverse events (AE) up to TOC and serious adverse events (SAE) through LFU; recording vital signs, physical examination, electrocardiogram (ECG), and clinical laboratory findings (clinical chemistry, hematology, and urinalysis); at prespecified times throughout the study.

MDRSP [7] = assay: Example 4 CAP study, outcome by baseline pathogen; assay type: in vivo, S. pneumoniae
Source text: as §3

[8] = test system: community-acquired pneumonia (CAP); assay: Example 5 Phase 3 study, ceftaroline vs ceftriaxone with adjunctive clarithromycin in CAP, efficacy; assay type: in vivo, human
Source text: The secondary objective of the study was to evaluate the following: the clinical response at end-of-therapy (EOT); the microbiological favorable outcome rate at TOC; the overall (clinical and radiographic) success rate at TOC; the clinical and microbiological response by pathogen at TOC; clinical relapse at late follow-up (LFU); microbiological reinfection/recurrence at LFU; and safety.
The primary efficacy outcome measures were the per-subject clinical cure rate at TOC in the CE and MITTE Populations. Subjects were considered clinically cured at TOC if they had total resolution of all signs and symptoms of the baseline infection, or improvement of the infection such that no further antimicrobial therapy was necessary.
(§4) Non-inferiority was concluded if the lower limit of the 95% CI was higher than −10%.

MDRSP [9] = assay: Example 5 CAP study, outcome by baseline pathogen; assay type: in vivo, S. pneumoniae
Source text: as §3

[10] = human, in vivo
Method: (§8) Study-Drug: Ceftaroline fosamil was administered in two consecutive 300 mg intravenous (IV) infusions over 30 minutes, every 12 hours (q12h). The 600-mg dose of ceftaroline fosamil infused over 60 minutes was split into two infusions in order to maintain the blind. For subjects with moderate renal impairment (30 ml/min<CrCl≤50 ml/min), as estimated by the Cockroft-Gault formula, unblinded pharmacy staff or unblinded study staff could adjust the dose of ceftaroline fosamil to two consecutive 200 mg infusions and readjust dose to two 300 mg infusions when renal function improved (CrCl>50 mL/min). The duration of treatment was between 5 to 7 days.
(§9) All subjects who received any amount of study drug were included in the safety analysis. Safety measures included monitoring for adverse events (AE) up to TOC and serious adverse events (SAE) through LFU; recording vital signs, physical examination, electrocardiogram (ECG), and clinical laboratory findings (clinical chemistry, hematology, and urinalysis), at prespecified times throughout the study.

[11] = Example 4 CAP study, safety
Method: as §8, §9

S. aureus [12] = assay: Example 4 CAP study, outcome by baseline pathogen; assay type: in vivo
Source text: as §3

H. influenzae [13] = assay: Example 4 CAP study, outcome by baseline pathogen; assay type: in vivo
Source text: as §3

H. parainfluenzae [14] = assay: Example 4 CAP study, outcome by baseline pathogen; assay type: in vivo
Source text: as §3

S. pneumoniae [15] = assay: Example 4 CAP study, outcome by baseline pathogen; assay type: in vivo
Source text: as §3

K. pneumoniae = assay: Example 4 CAP study, outcome by baseline pathogen; assay type: in vivo
Source text: as §3

Haemophilus influenzae = assay: Integrated Phase 3 CABP studies, clinical cure by infecting pathogen; assay type: in vivo; conditions: ME patients
Method: as §1, §2

Escherichia coli = assay: as above; assay type: in vivo; conditions: ME patients
Method: as §1, §2

Streptococcus pneumoniae = assay: as above; assay type: in vivo; conditions: ME patients
Method: as §1, §2

Klebsiella pneumoniae = assay: as above; assay type: in vivo; conditions: ME patients
Method: as §1, §2

Staphylococcus aureus = assay: as above; assay type: in vivo; conditions: ME patients
Method: as §1, §2

[16] = test system: Community-Acquired Bacterial Pneumonia (CABP); assay: Two Phase 3 studies in CABP, clinical cure at TOC (single and integrated/combined); assay type: in vivo, human; conditions: for Combined clinical cure rate: combined data of the two CAP studies, TOC
Method: as §1, §2

[17] = test system: community-acquired pneumonia (CAP); assay: Example 4 Phase 3 study, ceftaroline vs ceftriaxone in CAP, efficacy; assay type: in vivo, human
Source text: The secondary objectives of the study were to evaluate the following: clinical response at end-of-therapy (EOT); the microbiological favorable outcome rate at TOC; the overall (clinical and radiographic) success rate at TOC; the clinical and microbiological response by pathogen at TOC; clinical relapse at late follow-up (LFU); microbiological reinfection/recurrence at LFU; and safety.
The following criteria were used for evaluation: The primary efficacy outcome measures were the pet-subject clinical cure rate at test-of-cure (TOC) in the CE and MITTE Populations Subjects were considered clinically cured at TOC if they had total resolution of all signs and symptoms of the baseline infection, or improvement of the infection such that no further antimicrobial therapy was necessary.
as §4

[18] = human, in vivo; remark: listed apart in the source
Method: as §5, §6, §7

[19] = test system: MSSA (methicillin-susceptible); assay: Integrated Phase 3 CABP studies, clinical cure by infecting pathogen; assay type: in vivo, Staphylococcus aureus; conditions: ME patients
Method: as §1, §2

[20] = test system: CYP1A2, CYP2B6, CYP2C8, CYP2C9, CYP2CI9, or CYP3A4/5; assay: CYP induction in human hepatocytes; assay type: in vitro ADME

CO/N=C(\C(=O)N[C@@H]1C(=O)N2C(C(=O)O)=C(CSc3nc(=O)c(=O)[nH]n3C)CS[C@H]12)c1csc(N)n1 [Ceftriaxone, ceftriaxone, reference compound]
Clinical cure rate by infecting pathogen [1]: 1/4 (25.0%)
Favorable Microbiological Outcome at TOC by Baseline Pathogen (S. aureus [2]; Example 5, ME): 8/12 (66.7)
Clinical Cure Rate at the TOC Visit by Baseline Pathogen (S. aureus [2]; Example 5, ME Population): 7/12 (58.3)
Favorable Microbiological Outcome at TOC by Baseline Pathogen (H. influenzae [3]; Example 5, ME): 6/8 (75.0)
Clinical Cure Rate at the TOC Visit by Baseline Pathogen (H. influenzae [3]; Example 5, ME Population): 6/8 (75.0)
Favorable Microbiological Outcome at TOC by Baseline Pathogen (H. parainfluenzae [4]; Example 5, ME): 9/10 (90.0)
Clinical Cure Rate at the TOC Visit by Baseline Pathogen (H. parainfluenzae [4]; Example 5, ME Population): 9/10 (90.0)
Favorable Microbiological Outcome at TOC by Baseline Pathogen (S. pneumoniae [5]; Example 5, ME): 18/27 (66.7)
Clinical Cure Rate at the TOC Visit by Baseline Pathogen (S. pneumoniae [5]; Example 5, ME Population): 18/27 (66.7)
Favorable Microbiological Outcome at TOC by Baseline Pathogen (E. coli; Example 5, ME): 6/6 (100.0)
Clinical Cure Rate at the TOC Visit by Baseline Pathogen (E. coli; Example 5, ME Population): 5/6 (83.3)
hemolytic anemia [6]: No evidence of hemolytic anemia
percentage of deaths [6]: 2.6%
Favorable Microbiological Outcome at TOC by Baseline Pathogen (MDRSP [7]; Example 4, ME): 2/4 (50.0)
Clinical Cure Rate at the TOC Visit by Baseline Pathogen (MDRSP [7]; Example 4, ME Population): 1/4 (25.0)
Clinical Success at the TOC Visit ([8]; Example 5, CE population): 183 (78.2) %
Favorable Microbiological Outcome at the TOC Visit ([8]; Example 5, ME population): 56 (78.9) %
Clinical Success at the TOC Visit ([8]; Example 5, MITTE population): 233 (77.7) %
Favorable Microbiological Outcome at the TOC Visit ([8]; Example 5, mMITTE population): 63 (78.8) %
Favorable Microbiological Outcome at TOC by Baseline Pathogen (MDRSP [9]; Example 5, ME): 0
Clinical Cure Rate at the TOC Visit by Baseline Pathogen (MDRSP [9]; Example 5, ME Population): 0
Adverse event: COPD [10]: 5 (1.6) %
Adverse event: Diarrhea [10]: 9 (2.9) %
Adverse event: Head ache [10]: 5 (1.6) %
Adverse event: Hypertension [10]: 8 (2.6) %
Adverse event: Pleural effusion [10]: 7 (2.3) %
Adverse event: Pneumonia [10]: 4 (1.3) %
study-drug-related TEAE: alanine aminotransferase increased [10]: 1.0%
study-drug-related TEAE: blood creatinine phosphokinase increased [10]: 0.7%
study-drug-related TEAE: heartache [10]: 1.0%
subjects with any study-drug-related TEAEs [10]: 13.7%
hemolytic anemia [11]: No evidence of hemolytic anemia
incidence of deaths [11]: 2.0%
Favorable Microbiological Outcome at TOC by Baseline Pathogen (S. aureus [12]; Example 4, ME): 11/15 (73.3)
Clinical Cure Rate at the TOC Visit by Baseline Pathogen (S. aureus [12]; Example 4, ME Population): 8/15 (53.3)
Favorable Microbiological Outcome at TOC by Baseline Pathogen (H. influenzae [13]; Example 4, ME): 11/12 (91.7)
Clinical Cure Rate at the TOC Visit by Baseline Pathogen (H. influenzae [13]; Example 4, ME Population): 11/12 (91.7)
Favorable Microbiological Outcome at TOC by Baseline Pathogen (H. parainfluenzae [14]; Example 4, ME): 7/7 (100.0)
Clinical Cure Rate at the TOC Visit by Baseline Pathogen (H. parainfluenzae [14]; Example 4, ME Population): 6/7 (85.7)
Favorable Microbiological Outcome at TOC by Baseline Pathogen (S. pneumoniae [15]; Example 4, ME): 25/32 (78.1)
Clinical Cure Rate at the TOC Visit by Baseline Pathogen (S. pneumoniae [15]; Example 4, ME Population): 23/32 (71.9)
Favorable Microbiological Outcome at TOC by Baseline Pathogen (K. pneumoniae; Example 4, ME): 7/8 (87.5)
Clinical Cure Rate at the TOC Visit by Baseline Pathogen (K. pneumoniae; Example 4, ME Population): 7/8 (87.5)
Clinical cure rate by infecting pathogen (Haemophilus influenzae): 17/20 (85.0%)
Clinical cure rate by infecting pathogen (Escherichia coli): 9/12 (75.0%)
Clinical cure rate by infecting pathogen (Streptococcus pneumoniae): 41/59 (69.5%)
Clinical cure rate by infecting pathogen (Klebsiella pneumoniae): 10/12 (83.3%)
Clinical cure rate by infecting pathogen (Staphylococcus aureus): 15/27 (55.6%)
Clinical cure rate at TOC ([16]; CABP Study 1, CE population): 183/234 (78.2%)
Clinical cure rate at TOC ([16]; CABP Study 1, MITTE population): 233/300 (77.7%)
Clinical cure rate at TOC ([16]; CABP Study 2, CE population): 166/215 (77.2%)
Clinical cure rate at TOC ([16]; CABP Study 2, MITTE population): 206/273 (75.5%)
Clinical cure rate at TOC ([16]; Integrated Studies, CE population, 5 to 7 days of therapy): 349/449 (77.7%)
Clinical cure rate at TOC ([16]; Integrated Studies, MITTE population): 439/573 (76.6%)
Combined clinical cure rate ([16]; CE): 349/449 (77.7) %
Combined clinical cure rate ([16]; ME): 111/147 (75.5) %
Combined clinical cure rate ([16]; MITTE): 439/573 (76.6) %
Combined clinical cure rate ([16]; mMITTE): 126/168 (75.0) %
Clinical Success at the TOC Visit ([17]; Example 4, CE population): 166 (77.2) %
Favorable Microbiological Outcome at the TOC Visit ([17]; Example 4, ME population): 63 (82.9) %
Clinical Success at the TOC Visit ([17]; Example 4, MITTE population): 206 (75.5) %
Adverse event: Constipation [18]: 5 (1.6) %
Adverse event: Hypertension [18]: 8 (2.6) %
TEAEs assessed as drug related by the Investigators [18]: 12.7%
study-drug-related TEAE: headache [18]: 0.0%
study-drug-related TEAE: hepatic enzyme increased [18]: 1.0%
study-drug-related TEAE: sinus bradychardia [18]: 1.0%
Clinical cure rate by infecting pathogen [19]: 14/25 (56.0%)

CCO/N=C(\C(=O)N[C@H](C(=O)[O-])[C@@H]1NC(C(=O)[O-])=C(Sc2nc(-c3cc[n+](C)cc3)cs2)CS1)c1nsc(N)n1.[H+] [ceftaroline M-1]
induction of CYP isoenzymes [20]: not inducers
